The structures appear in SMILES notation.

The assay in a line: Concentration dependent inactivation of gGamma-amino-N-butyrate transaminase.

`N[C@@H]1C=CC[C@H](C(=O)O)C1` [5-Amino-cyclohex-3-enecarboxylic acid] came in with a Ki of 2.3 mM.

The values above are taken from BindingDB's records for doi:10.1021/jm020134i (Northwestern University, 2002).
